In US7842808B2, “Anti-migraine spirocycles” (Bristol-Myers Squibb Company, priority 2002, dated 2010) one finds IC50 and EC50 data, which are given here for 17 compounds.

Usually IC50 stands for the concentration at which inhibition is half-maximal. For orientation: EC50 means the midpoint of the concentration-response curve.

Assay [1] has as its target T1, human CGRP receptor (SK-N-MC cells) (Homo sapiens, UniProt O60894+Q16602).
T1 construct: SK-N-MC cells that endogenously express the human CGRP receptor; endogenous in cells; host or cells: SK-N-MC cells
Nature of the assay: Cyclic AMP Assay, functional antagonism of CGRP-induced cyclic AMP formation. Conditions: SK-N-MC cells, 0.3 nM CGRP; read-out: cAMP Function IC50. Format: cell-based. On the procedure:
Functional Antagonism. Antagonism of the compounds of invention was determined by measuring the formation of cyclic AMP (adenosine 3′5′-cyclic monophosphate) in SK-N-MC cells that endogenously express the human CGRP receptor. […] For cyclic AMP measurements SK-N-MC cells were incubated with 0.3 nM CGRP alone or in the presence of various concentrations of the compounds of invention for 30 min at room temperature. […] Cyclic AMP was extracted using the lysis reagent and its concentration was determined by radioimmunoassay using RPA559 cAMP SPA Direct Screening Assay Kit (Amersham Pharmacia Biotech). IC50 values were calculated using Excel fit.

For assay [2], the target named is T2, CGRP receptor (SK-N-MC cell membranes) (Homo sapiens, UniProt O60894+Q16602).
T2 construct: endogenous in cells; host or cells: SK-N-MC cells (membrane homogenate)
Description: CGRP Binding Assay ([125I]-CGRP radioligand binding, SK-N-MC homogenate). Conditions: displacement of [125I]-CGRP, SK-N-MC homogenate; read-out: CGRP binding IC50. (In general: Displacement assays read how much labelled ligand stays bound in the presence of the test substance.)

Assay [3] concerns human cerebral vessels (CGRP-induced dilation). Description: Ex Vivo Human Cerebral Artery Assay, reversal of CGRP-induced relaxation. Conditions: reversal of 1 nM hCGRP-induced relaxation, vessels pre-contracted with 10 mM KCl. From the text:
Rationale and Overview. To provided direct evidence of the ability for novel compounds to reverse CGRP-induced dilation in human cerebral vessels, an ex vivo assay was design. Briefly, isolated vessel rings were mounted in a tissue bath where vessels were pre-contracted with potassium chloride (KCl) and fully dilated with hCGRP, then this relaxation was reversed by the cumulative addition of CGRP-receptor antagonists (complete details follow).
Tissue Samples. Autopsy samples of human arteries were obtained from vendors (ABS Inc. or NDRI). All vessels were transported on ice-cold HEPES buffer (composition in mM: NaCl 130, KCl 4, KH2PO4 1.2, MgSO4 1.2, CaCl2 1.8, Glucose 6, NaHCO3 4, HEPES 10, EDTA 0.025). Upon receipt, the vessels were placed in cold Kreb's buffer (composition in mM: NaCl 118.4, KCl 4.7, KH2PO4 1.2, MgSO4 1.2, CaCl2 1.8, Glucose 10.1, NaHCO3 25) saturated with carbogen (5% CO2 and 95% oxygen).
Isolated Tissue Baths. The vessels were cleaned of connective tissues and cut into cylindrical segments of 4-5 mm in length. The vessels were then mounted in tissue baths between two stainless steel hooks; one of which is fixed and the other of which was connected to a force displacement transducer. The vessel tension was continuously recorded using a data acquisition system (Powerlab, ADInstruments, Mountain View, Calif.) connected to the transducer. The tissue baths containing Krebs buffer and mounted vessels were temperature (37° C.) and pH (7.4) controlled with continuous bubbling of carbogen. The artery segments were allowed to equilibrate for about 30-45 min until a stable resting tone was achieved. Prior to the assay, vessels were primed (conditioned) with 100 mM KCl and subsequently washed. The vessels were pre-contracted with 10 mM KCl and fully dilated with 1 nM hCGRP. Concentration-response curves to CGRP-receptor antagonists were performed by the cumulative addition of drugs in half log units in fully dilated vessels. At each concentration, the effects of the drugs were expressed as % reversal of CGRP-induced relaxation in each vessel. The actual assay and data analysis were performed for each vessel individually, fitting the concentration-response data to a four parameter logistic function by non-linear regression analysis, to estimate the EC50 values.

T1 sequence (Q16602 23-461): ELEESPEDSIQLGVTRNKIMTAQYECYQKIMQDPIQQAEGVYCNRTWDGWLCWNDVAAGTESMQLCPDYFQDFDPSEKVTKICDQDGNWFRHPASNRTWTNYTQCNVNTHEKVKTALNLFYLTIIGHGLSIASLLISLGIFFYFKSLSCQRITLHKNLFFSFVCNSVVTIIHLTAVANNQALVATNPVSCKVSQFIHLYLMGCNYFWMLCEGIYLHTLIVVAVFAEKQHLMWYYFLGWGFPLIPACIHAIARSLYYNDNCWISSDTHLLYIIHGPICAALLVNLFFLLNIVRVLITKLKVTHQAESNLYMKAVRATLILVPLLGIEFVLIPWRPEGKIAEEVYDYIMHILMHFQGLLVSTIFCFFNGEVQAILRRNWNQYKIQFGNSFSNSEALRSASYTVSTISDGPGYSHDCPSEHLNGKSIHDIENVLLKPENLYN
T1 sequence (O60894 27-148): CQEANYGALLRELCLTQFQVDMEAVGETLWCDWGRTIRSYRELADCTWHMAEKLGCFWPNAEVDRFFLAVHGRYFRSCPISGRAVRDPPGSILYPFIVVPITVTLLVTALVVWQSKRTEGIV
T2 sequence (Q16602 23-461): as the sequence (Q16602 23-461) above
T2 sequence (O60894 27-148): as the sequence (O60894 27-148) above

With `Cc1cc(CC(NC(=O)N2CCC(N3Cc4ccccc4NC3=O)CC2)C(=O)N2CCN(C)CC2)cc2cn[nH]c12` (racemic) [Example 19, (±)-4-(2-Oxo-1,4-dihydro-2H-quinazolin-3-yl)-piperidine-1-carboxylic acid[1-(7-methyl-1H-indazol-5-ylmethyl)-2-(4-methyl-piperazin-1-yl)-2-oxo-ethyl]-amide], the IC50 in assay [1] and in assay [2] was below 10 nM each time. The EC50 in assay [3] was below 10 nM.

Turning to `Cc1cc(CC(NC(=O)N2CCC(N3Cc4ccccc4NC3=O)CC2)C(=O)N2CCCC2)cc2cn[nH]c12` (racemic) [Example 20, (±)-4-(2-Oxo-1,4-dihydro-2H-quinazolin-3-yl)-piperidine-1-carboxylic acid[1-(7-methyl-1H-indazol-5-ylmethyl)-2-oxo-2-pyrrolidin-1-yl-ethyl]-amide], the IC50 in assay [1] and in assay [2] was below 10 nM in each case. In addition, in assay [3], the 50% effective concentration (EC50) was below 10 nM.

On to `Cc1cc(CC(NC(=O)N2CCC3(CC2)NC(=O)Nc2ccccc23)C(=O)N2CCC(N3CCCCC3)CC2)cc2cn[nH]c12` (racemic) [Example 23, (±)-1-(7-Methyl-1H-indazol-5-ylmethyl)-2-[1,4-bipiperidin]-1-yl-2-oxoethyl]-2′,3′-dihydro-2′-oxospiro-[piperidine-4,4′-(1H)-quinazoline]-1-carboxamide], for which the IC50 in assay [1] and in assay [2] was below 10 nM each time. For the same compound, the EC50 in assay [3] is below 10 nM.

As for `Cc1cc(CC(NC(=O)N2CCC3(CC2)OC(=O)Nc2ccccc23)C(=O)N2CCC(N3CCCCC3)CC2)cc2cn[nH]c12` (racemic) [Example 25, (±)-1-(7-Methyl-1H-indazol-5-ylmethyl)-2-[1,4-bipiperidin]-1-yl-2-oxoethyl]-1′,2′-dihydro-2′-oxospiro-[4H-3′,1-benzoxazine-4,4′-piperidine]-1-carboxamide], the IC50 in assay [1] and in assay [2] was below 10 nM in each case. Besides, the concentration for a half-maximal effect (EC50) in assay [3] was below 10 nM.

`O=C(NC(CN1CCc2[nH]ncc2C1)C(=O)N1CCC(N2CCCCC2)CC1)N1CCC(N2Cc3ccccc3NC2=O)CC1` (racemic) [Example 54, (±)-4-(2-Oxo-1,4-dihydro-2H-quinazolin-3-yl)-piperidine-1-carboxylic acid[2-[1,4′]bipiperidinyl-1′-yl-2-oxo-1-(1,4,6,7-tetrahydro-pyrazolo[4,3-c]pyridin-5-ylmethyl)-ethyl]-amide]: the IC50 fell in the range of 100 to 1000 nM in assay [1] and 10 to 100 nM in assay [2]. For the same compound, the EC50 in assay [3] was below 10 nM.

Take `COC(=O)C(CC(=O)N1CCC(N2Cc3ccccc3NC2=O)CC1)Cc1cc(C)c2[nH]ncc2c1` (racemic) [Example 67, (±)-2-(7-Methyl-1H-indazol-5-ylmethyl)-4-oxo-4-[4-(2-oxo-1,4-dihydro-2H-quinazolin-3-yl)-piperidin-1-yl]-butyric acid methyl ester]: the figures for the IC50 in assay [1] and in assay [2] were 100 to 1000 nM and 10 to 100 nM, respectively. In assay [3], the EC50 lay in the range of 10 to 100 nM.

With `Cc1cc(CC(CC(=O)N2CCC3(CC2)OC(=O)Nc2ccccc23)C(=O)N2CCC(N3CCCCC3)CC2)cc2cn[nH]c12` (racemic) [Example 68, (±)-1-[1,4′]Bipiperidinyl-1′-yl-2-(7-methyl-1H-indazol-5-ylmethyl)-4-[1′,2′-dihydro-2′-oxospiro-[4H-3′,1-benzoxazine-4,4′-piperidinyl]-butane-1,4-dione], the IC50 in assay [1] and in assay [2] was below 10 nM each time. Besides, in assay [3], the EC50 was below 10 nM.

As to `O=C(N[C@H](Cc1csc2ccccc12)C(=O)N1CCC(N2CCCCC2)CC1)N1CCC2(CC1)Cc1ccccc1NC2=O` [Example 61, (R)-1-Oxo-3,4-benzo-2,9-diaza-spiro[5.5]undec-3-ene-9-carboxylic acid (1-benzo[b]thiophen-3-ylmethyl-2-[1,4′]bipiperidinyl-1′-yl-2-oxo-ethyl)-amide], the IC50 in assay [1] and in assay [2] was 100 to 1000 nM each time.

As for `O=C1CC2(CCN(C(=O)N[C@H](Cc3csc4ccccc34)C(=O)N3CCC(N4CCCCC4)CC3)CC2)c2ccccc2N1` [Example 62, N-[(1R)-1-(Benzo[b]thien-3-ylmethyl)-2-[1,4-bipiperidin]-1-yl-2-oxoethyl]-3′,4′-dihydro-2-oxospiro-[piperidine-4,4′(1H)-quinoline]-1-carboxamide], the IC50 in assay [1] and in assay [2] was 10 to 100 nM throughout.

Take `O=C1NCC2(CCN(C(=O)N[C@H](Cc3csc4ccccc34)C(=O)N3CCC(N4CCCCC4)CC3)CC2)c2ccccc21` [Example 63, N-[(1R)-1-(Benzo[b]thien-3-ylmethyl)-2-[1,4-bipiperidin]-1-yl-2-oxoethyl]-2′,3′-dihydro-1-oxospiro-[piperidine-4,4′(1H)-isoquinoline]-1-carboxamide]: the IC50 in assay [1] and in assay [2] was 100 to 1000 nM in each case.

With `O=C1Nc2ccccc2C2(CCN(C(=O)N[C@H](Cc3csc4ccccc34)C(=O)N3CCC(N4CCCCC4)CC3)CC2)O1` [Example 64, N-[(1R)-1-(Benzo[b]thien-3-ylmethyl)-2-[1,4′-bipiperidin]-1′-yl-2-oxoethyl]-1,2-dihydro-2-oxospiro-[4H-3,1-benzoxazine-4,4′-piperidine]-1′-carboxamide], the IC50 in assay [2] is 10 to 100 nM. Moreover, in assay [3], the EC50 lay in the range of 10 to 100 nM.

Turning to `O=C(C[C@H](Nc1cc(Cl)ccc1[N+](=O)[O-])C(=O)N1CCC(N2CCCCC2)CC1)N1CCC(N2Cc3ccccc3NC2=O)CC1` [Example 87, (L)-1-[1,4′]Bipiperidinyl-1′-yl-2-(5-chloro-2-nitro-phenylamino)-4-[4-(2-oxo-1,4-dihydro-2H-quinazolin-3-yl)-piperidin-1-yl]-butane-1,4-dione], the IC50 in assay [1] and in assay [2] was 10 to 100 nM each time.

With `O=C(C[C@H](Nc1cc(Cl)ncn1)C(=O)N1CCC(N2CCCCC2)CC1)N1CCC(N2Cc3ccccc3NC2=O)CC1` [Example 88, (L)-1-[1,4′]Bipiperidinyl-1′-yl-2-(6-chloro-pyrimidin-4-ylamino)-4-[4-(2-oxo-1,4-dihydro-2H-quinazolin-3-yl)-piperidin-1-yl]-butane-1,4-dione], the IC50 was in the range of 10 to 100 nM in assay [1] and 100 to 1000 nM in assay [2].

In the case of `O=C(C[C@H](Nc1nc(Cl)nc2[nH]cnc12)C(=O)N1CCC(N2CCCCC2)CC1)N1CCC(N2Cc3ccccc3NC2=O)CC1` [Example 89, (L)-1-[1,4′]Bipiperidinyl-1′-yl-2-(2-chloro-9H-purin-6-ylamino)-4-[4-(2-oxo-1,4-dihydro-2H-quinazolin-3-yl)-piperidin-1-yl]-butane-1,4-dione], the IC50 in assay [1] fell in the range of 10 to 100 nM; in assay [2], 100 to 1000 nM.

As for `Cc1nc(N[C@@H](CC(=O)N2CCC(N3Cc4ccccc4NC3=O)CC2)C(=O)N2CCC(N3CCCCC3)CC2)nc2nn[nH]c12` [Example 92, (L)-1-[1,4′]Bipiperidinyl-1′-yl-2-(7-methyl-1H-[1,2,3]triazolo[4,5-d]pyrimidin-5-ylamino)-4-[4-(2-oxo-1,4-dihydro-2H-quinazolin-3-yl)-piperidin-1-yl]-butane-1,4-dione], the IC50 lay in the range of 100 to 1000 nM in assay [1] and 10 to 100 nM in assay [2].

For the compound `O=C(C[C@H](NCc1ccc2[nH]ncc2c1)C(=O)N1CCC(N2CCCCC2)CC1)N1CCC(N2Cc3ccccc3NC2=O)CC1` [Example 94, (L)-1-[1,4′]Bipiperidinyl-1′-yl-2-((5′-indazolyl)-methyl-amino)-4-[4-(2-oxo-1,4-dihydro-2H-quinazolin-3-yl)-piperidin-1-yl]-butane-1,4-dione], the IC50 in assay [1] and in assay [2] was 100 to 1000 nM in each case.

Regarding `COc1ccc(C(=O)N[C@@H](CC(=O)N2CCC(N3Cc4ccccc4NC3=O)CC2)C(=O)N2CCC(N3CCCCC3)CC2)cc1` [Example 99, (L)-N-{1-([1,4′]Bipiperidinyl-1′-carbonyl)-3-oxo-3-[4-(2-oxo-1,4-dihydro-2H-quinazolin-3-yl)-piperidin-1-yl]-propyl}-4-methoxy-benzamide], the IC50 in assay [1] and in assay [2] was above 1000 nM each time.
